The source of these data is PMC8750417, “Intracellular Amplifiers of Reactive Oxygen Species Affecting Mitochondria as Radiosensitizers” (Cancers, 2021).

Like-named read-outs stand apart in the source and are kept apart here.

Data set [1] is described as follows: n-octanol/water partition coefficient (logP) by RP-TLC. The format is physicochemical. How it is done: Determination of n-octanol/water partition coefficients (LogP) […]
mixture of dichloromethane/CH3OH at proper concentrations. Commercially available […]
7.4) (6/4, v/v) was used. The solvent migration distance was around 4.5 cm. The plates […]
and its distance was manually measured. All measurements were done in at least triplicate and average values were used in further calculations. All experiments were performed at ambient temperature (22 ± 2 °C). […]

Data set [2] deals with A2780 cells. The experiment in a line: Mechanism of death of A2780 cells (Annexin A5/PI flow cytometry). The settings on record: A2780, 48 h. The format is cell-based, human. How it is done:
Figure S54. Effect of prodrugs 1 and 2c (48 h incubation) on the intracellular amount of GSH in Jurkat cells. *: p< 0.05; ns: non-significant (Student’s t test). Detailed experimental description is provided above.
Study of the mechanism of death of A2780 cells induced by prodrug 2c and controls A2780 cells were seeded into 96 well culture plates at the same cell concentration and in the same medium as applied for the above described MTT assay (48 h incubation with the prodrugs). The next day, stock solutions of prodrugs of different concentrations (1 µ L, solvent DMSO, final concentrations in wells were 5, 10 and 30 µ M) or carrier only (DMSO, 1 µ L, final concentration 1 %, v/v) were added to the wells and incubated in the chamber filled with CO 2 (5%). After 48 h supernatants were transferred into 1.5 mL Eppendorf tubes and 100 µ L of DPBS was added to transfer supernatant residue into tube. Trypsin (0.25%, 50 µ L) was then added to well to detach the cells. All supernatants in Eppendorf tubes were combined back into wells. After gently pipetting up and down, 50 µ L of cell solutions was transferred into a new Eppendorf tube and incubated with 200 µ L of staining solution, consisting of Annexin A5-Fitc (5 µ L) and propidium iodide (PI, 330 ng) per 1 mL buffer (conc. 1X). […]
(In general: In flow cytometry, cells or beads pass a laser one at a time.)

The subject of data set [3] is A2780 cells. The experiment in a line: Total intracellular ROS (CM-DCFH-DA), A2780. The settings on record: 2 h. In kind it is cell-based, human. How it is done: Monitoring total intracellular ROS (tROS)
A2780 cells were seeded in RPMI 1640 medium containing 5% FBS, 1% L-glutamine and 1% penicillin/streptomycin in a 24-well microtiter plate (total volume 0.5 mL) at a density of 200 cells/µL one day before the experiment. On the day of the experiment, the cells were washed twice with DPBS buffer and the medium was replaced with HBSS (Hanks' Balanced Salt solution, 500 μL). CM-DCFH-DA (5-(6-)chloromethyl-2',7'- dichlorodihydrofluorescein diacetate, Thermo- Fisher) solution (0.1 mM in DMSO, 5 μL) was added (final concentration 1 µM) and the cells were incubated in the dark chamber filled with CO2 (5%) at 37 °C for 15 min. […] Finally, the fluorescence of live cells (λex = 488 nm, λem = 525 nm) in the suspensions was determined by using flow cytometry (Figure 4A, 5C).
Intracellular ROS release in Jurkat cells was monitored analogously (Figure S58).
Figure S58. […] OY-axis “Fluorescence”: the increase of the mean fluorescence (λex = 488 […]

For `CCOC(=O)CCCCCn1cc(CN(C(=O)OCc2ccc(B3OC(C)(C)C(C)(C)O3)cc2)[c-]2cccc2)nn1.[Fe+2].c1cc[cH-]c1` [compound 1], the “logP (Hydrolyzed Prodrug)” value in data set [1] is 2.83 ± 0.07. Also, in data set [1] (pH 7.4), the “logP (Prodrug)” value came out at 4.87 ± 0.05.
In the case of `CC1(C)OB(c2ccc(COC(=O)N(Cc3cn(Cc4ccc(Cn5cc(Cc6ccccc6)nn5)cc4)nn3)[c-]3cccc3)cc2)OC1(C)C.[Fe+2].c1cc[cH-]c1` [2c], the “logP (Hydrolyzed Prodrug)” value in data set [1] (n-octanol/water partition coefficient of the hydrolyzed boronic acid (_BA) form of the prodrug named) turned out to be 3.23 ± 0.11. In addition, the “logP (Prodrug)” value in data set [1] (n-octanol/water partition coefficient of the intact prodrug (or control 2c_c), RP-TLC, MOPS pH 7.4) was found to be 5.37 ± 0.15. Also, the “mechanism of cell death” value in the data set with A2780 cells [2] is on record as “mainly via necrosis”. Besides, the “total ROS (tROS) vs background” value in the data set on A2780 cells [3] is “significantly higher than its background levels”.
